According to patent US5622933A, “Multiple branch peptide constructions for use against HIV” (priority 1993, dated 1997):
Read-outs that look alike come from different tables or passages of the source. Ends that are not written are not given here.

Experiments:
[1] = test system: rabbits; assay: ELISA of sera from rabbits immunized with MBPC.1 or MBPC.2; type: in vivo, rabbit; conditions: for reactivity of sera from rabbits immunized with the MBPC (ELISA, FIG. 6): against MBPC.1, MBPC.2, Mono.1 and V3 Cons; for antibody response in rabbits: rabbit, in vivo
Method: Sera from rabbits immunized with either MBPC.1 or MBPC.2 were tested in ELISA for their ability to bind MBPC.1, MBPC.2, Mono.1 (the monomeric form of MBPC.1) and the North American/European consensus V3 sequence (V3 Cons, or Cs).
In another set of experiments, sera from rabbits immunized with either MBPC.1 or MBPC.2 were tested (at 1/100 and 1/1000 dilutions) against various concentrations of MBPC.1, MBPC.2 and V3 Cons. FIGS. 7A, 7B and 7C clearly indicate that sera from rabbits immunized with MBPC.2 reacted in a dose dependant manner against MBPC.2 and V3 Cons. No reactivity against MBPC.1 was detected.

[2] = test system: Peripheral blood lymphocytes (PBL); assay: PBL antigen and mitogen induced proliferation ([3H]thymidine incorporation); type: cell-based, human; conditions: MBPCs 5×10^-6 M
Method: Peripheral blood lymphocytes (PBL) from 3 healthy HIV sero-negative donors were isolated from heparinized blood by the Ficoll-Hypaque technique. The culture medium was RPMI 1640 supplemented with 1% glutamine, 1% antibiotics and 10% heat inactivated fetal calf serum. Cells (10^5) were incubated in the presence of MBPCs (5×10^-6 M) with or without antigen (candidine, PPD) or mitogen (PHA). Antigen or mitogen treated cells were pulsed for eight hours with […] of [3H] thymidine. Then cells were harvested and [3H] thymidine incorporation in DNA was counted. […]

[3] = test system: HIV; assay: Inhibition of syncytia formation induced by HIV (summary statements); type: cell-based
Method: (§1) CEM or C8166 cells were chronically infected with HIV-1 Lai or HIV-2 Rod, or HIV-1MN, respectively. Infected cells (1×10^4) were incubated for 2 hours with various concentrations of MBPCs in 96-well plates. Uninfected Molt-4 cells (4×10^4) were then added in […]. Syncytia were counted after 18 hours at 37° C.

[4] = test system: HIV-1 or HIV-2; assay: Infection of human PBLs (RT activity, p24gag); type: cell-based; conditions: MBPC 10^-5 M; days 10 and 13 after infection; culture supernatants
Method: Peripheral blood lymphocytes (PBLs) were obtained from healthy donors, stimulated with phytohemagglutinin, and cultivated in RPMI 1640 containing 10% fetal calf serum and interleukin-2 (complete medium). Samples of 6×10^6 cells/ml were either treated or not treated with the indicated MBPC at a concentration of 10^-5 M and exposed to HIV-1 or HIV-2 (100 TCID50) for 1 hour at 37° C. in the continued presence of MBPCs. After thorough washing, PBLs were cultured in complete medium with 10^-5 M of the corresponding MBPC. The state of infection was assessed by determination of RT activity (for both HIV-1 and HIV-2 isolates) and HIV-1 p24^gag measurements (Coulter kit, cut-off 10 pg/ml) in the case of HIV-1 isolates 10 days post-infection. The MBPC treatment used were as follows: 1-none; 2- [GPGRAF]8 -MLC; 3-[[…]]4 -MLC; 4- [[…]]4 -MLC (a non-HIV related MBPC) (MLC indicates a core lysine structure). The results shown in FIGS. 2A-2C are representative of three separate experiments. The nature of the viral isolates used was checked by PCR (HIV-1 versus HIV-2 isolates) and RIPA for discriminating between HIV-1 (LAI) and HIV-1 (NDK).

[5] = test system: HIV-1 (IIIB); type: cell-based; conditions: for number of syncytia (HIV-1 induced cell fusion): 24 hours
Text: 50×10^3 8E5 cells chronically infected with a RT-deficient HIV-I (IIIB) isolate, were co-cultivated with 150×10^3 phytohemagglutinin (PHA) stimulated human peripheral blood lymphocytes (PBLs) in the presence of the indicated peptide in 96-well plates. The MBPCs used are described by the peptides attached, and the number thereof, to a core lysine matrix, which is designated HLC. All amino acids used for this experiment were in dextro form.

[6] = test system: HIV-1Lai; assay: Syncytia formation blockage (chronically infected cells + uninfected Molt-4 cells); type: cell-based; design: key: -: The presence of syncytia is indicated by + signs, allocated in approximate proportion to the quantities counted; The presence of syncytia is indicated by + signs, allocated in approximate proportion to the quantities counted; ++: The presence of syncytia is indicated by + signs, allocated in approximate proportion to the quantities counted; +++: The presence of syncytia is indicated by + signs, allocated in approximate proportion to the quantities counted; ++++: The presence of syncytia is indicated by + signs, allocated in approximate proportion to the quantities counted
Method: as §1

[7] = test system: HIV-2Rod; assay: as above; type: cell-based; design: key: -: The presence of syncytia is indicated by + signs, allocated in approximate proportion to the quantities counted; The presence of syncytia is indicated by + signs, allocated in approximate proportion to the quantities counted; ++: The presence of syncytia is indicated by + signs, allocated in approximate proportion to the quantities counted; +++: The presence of syncytia is indicated by + signs, allocated in approximate proportion to the quantities counted; ++++: The presence of syncytia is indicated by + signs, allocated in approximate proportion to the quantities counted
Method: as §1

[8] = test system: HIV-1MN; assay: as above; type: cell-based; design: key: -: The presence of syncytia is indicated by + signs, allocated in approximate proportion to the quantities counted; The presence of syncytia is indicated by + signs, allocated in approximate proportion to the quantities counted; ++: The presence of syncytia is indicated by + signs, allocated in approximate proportion to the quantities counted; +++: The presence of syncytia is indicated by + signs, allocated in approximate proportion to the quantities counted; ++++: The presence of syncytia is indicated by + signs, allocated in approximate proportion to the quantities counted
Method: as §1

## (RKSIHIGPGRAFYT)4 -(K)2 -K-βA-OH (also: four copies on lysine core (K)2-K-βA-OH) [MBPC.5, tetradecapeptide MBPC]
[1]
  reactivity of sera from rabbits immunized with the MBPC (ELISA, FIG. 6): recognized significantly MBPC.2 and V3 Cons
  antibody response in rabbits: did invoke such a response
[2]; Donor 1, Cand1
  [3H] Thymidine Incorporation: 80000 cpm
[2]; Donor 1, Cand2
  [3H] Thymidine Incorporation: 85000 cpm
[2]; Donor 1, PPD1
  [3H] Thymidine Incorporation: 1300 cpm
[2]; Donor 1, PPD2
  [3H] Thymidine Incorporation: 2100 cpm
[2]; Donor 2, Cand1
  [3H] Thymidine Incorporation: 15000 cpm
[2]; Donor 2, Cand2
  [3H] Thymidine Incorporation: 9000 cpm
[2]; Donor 2, PHA1
  [3H] Thymidine Incorporation: 115000 cpm
[2]; Donor 2, PHA2
  [3H] Thymidine Incorporation: 111000 cpm
[2]; Donor 2, PPD1
  [3H] Thymidine Incorporation: 24000 cpm
[2]; Donor 2, PPD2
  [3H] Thymidine Incorporation: 26000 cpm
[2]; Donor 3, Cand1
  [3H] Thymidine Incorporation: 3700 cpm
[2]; Donor 3, Cand2
  [3H] Thymidine Incorporation: 1100 cpm
[2]; Donor 3, PHA1
  [3H] Thymidine Incorporation: 228000 cpm
[2]; Donor 3, PHA2
  [3H] Thymidine Incorporation: 188000 cpm
[2]; Donor 3, PPD1
  [3H] Thymidine Incorporation: 4000 cpm
[2]; Donor 3, PPD2
  [3H] Thymidine Incorporation: 2400 cpm
[3]
  inhibiting effect on syncytia formation, in words: inhibiting effect at a slightly higher concentration
[4]
  RT activity lower in MBPCs-treated samples than control samples: more than 90%
[5]; 5×10^-6 M
  inhibition of syncytia formation, in words: able to inhibit syncytia formation
[5]; 5 × 10^-6 M
  number of syncytia (HIV-1 induced cell fusion): - (- indicates the total absence of syncytia in the well)
[5]; 5 × 10^-7 M
  number of syncytia (HIV-1 induced cell fusion): +++
[6]; MBPC Conc. 5 × 10^-6 M
  Syncytia formation: -
[6]; MBPC Conc. 10^-6 M
  Syncytia formation: +
[6]; MBPC Conc. 10^-7 M
  Syncytia formation: ++++
[7]; MBPC Conc. 5 × 10^-6 M
  Syncytia formation: -
[7]; MBPC Conc. 10^-6 M
  Syncytia formation: -
[7]; MBPC Conc. 10^-7 M
  Syncytia formation: +
[8]; MBPC Conc. 5 × 10^-6 M
  Syncytia formation: -
[8]; MBPC Conc. 10^-6 M
  Syncytia formation: ++
[8]; MBPC Conc. 10^-7 M
  Syncytia formation: ++++

## (GPGRAF)8 -(K)4 -(K)2 -K-βA-OH [MBPC.3]
[1]
  reactivity of sera from rabbits immunized with the MBPC (ELISA, FIG. 6): did not react against MBPC.1 (except for a weak reactivity of the serum from rabbit A)
  antibody response in rabbits: did not induce a significant antibody response
[2]; Donor 1, Cand1
  [3H] Thymidine Incorporation: 87000 cpm
[2]; Donor 1, Cand2
  [3H] Thymidine Incorporation: 100000 cpm
[2]; Donor 1, PPD1
  [3H] Thymidine Incorporation: 1300 cpm
[2]; Donor 1, PPD2
  [3H] Thymidine Incorporation: 3100 cpm
[2]; Donor 2, Cand1
  [3H] Thymidine Incorporation: 17000 cpm
[2]; Donor 2, Cand2
  [3H] Thymidine Incorporation: 11000 cpm
[2]; Donor 2, PHA1
  [3H] Thymidine Incorporation: 87000 cpm
[2]; Donor 2, PHA2
  [3H] Thymidine Incorporation: 95000 cpm
[2]; Donor 2, PPD1
  [3H] Thymidine Incorporation: 24000 cpm
[2]; Donor 2, PPD2
  [3H] Thymidine Incorporation: 27000 cpm
[2]; Donor 3, Cand1
  [3H] Thymidine Incorporation: 3200 cpm
[2]; Donor 3, Cand2
  [3H] Thymidine Incorporation: 1200 cpm
[2]; Donor 3, PHA1
  [3H] Thymidine Incorporation: 162000 cpm
[2]; Donor 3, PHA2
  [3H] Thymidine Incorporation: 154000 cpm
[2]; Donor 3, PPD1
  [3H] Thymidine Incorporation: 3900 cpm
[2]; Donor 3, PPD2
  [3H] Thymidine Incorporation: 3100 cpm
[3]
  MBPC concentration with which inhibiting effect on syncytia formation was observed in vitro: around 10^-6 M
[4]
  RT activity lower in MBPCs-treated samples than control samples: more than 90%
[5]; 5 × 10^-5 M
  number of syncytia (HIV-1 induced cell fusion): - (- indicates the total absence of syncytia in the well)
[5]; 5 × 10^-6 M
  number of syncytia (HIV-1 induced cell fusion): - (- indicates the total absence of syncytia in the well)
[5]; 5×10^-7 M
  inhibition of syncytia formation, in words: marked inhibition of syncytia formation
[5]; 5 × 10^-7 M
  number of syncytia (HIV-1 induced cell fusion): ±
[6]; MBPC Conc. 5 × 10^-6 M
  Syncytia formation: -
[6]; MBPC Conc. 10^-6 M
  Syncytia formation: +
[6]; MBPC Conc. 10^-7 M
  Syncytia formation: ++++
[7]; MBPC Conc. 5 × 10^-6 M
  Syncytia formation: -
[7]; MBPC Conc. 10^-6 M
  Syncytia formation: -
[7]; MBPC Conc. 10^-7 M
  Syncytia formation: +
[8]; MBPC Conc. 5 × 10^-6 M
  Syncytia formation: -
[8]; MBPC Conc. 10^-6 M
  Syncytia formation: +
[8]; MBPC Conc. 10^-7 M
  Syncytia formation: +++
